According to the supplement of paper PMC10307832:

Key:
Experiment in all cases: relative viability (nuclei count vs DMSO), 5 days (fraction); higher = more cells survive
Bexarotene + Luminespib = compound: C=C(c1ccc(C(=O)O)cc1)c1cc2c(cc1C)C(C)(C)CCC2(C)C [Bexarotene] + CCNC(=O)c1noc(-c2cc(C(C)C)c(O)cc2O)c1-c1ccc(CN2CCOCC2)cc1 [Luminespib] (partner 0.01 µM)
Outline: (§1)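 A single step with final 0.05% Triton X-100, 1% formaldehyde and 1 ug/ml Hoechst fixed the cells and stained nuclei 5 days after treatment. Lung cancer cell lines in 1536-well plates had been treated by pin tool the day after seeding with one drug alone or a fixed anchor-drug dose plus five library-drug doses (not always all listed) in √10 steps, and nuclei were counted on 4× images. Relative viability is the ratio of nuclei in treated wells to nuclei in vehicle wells, taken as the median of duplicate plates.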

Bexarotene + Foretinib = compound: C=C(c1ccc(C(=O)O)cc1)c1cc2c(cc1C)C(C)(C)CCC2(C)C [Bexarotene] + COc1cc2c(Oc3ccc(NC(=O)C4(C(=O)Nc5ccc(F)cc5)CC4)cc3F)ccnc2cc1OCCCN1CCOCC1 [Foretinib] (partner 0.25 µM)
Outline: as §1

Bexarotene + Dasatinib = compound: C=C(c1ccc(C(=O)O)cc1)c1cc2c(cc1C)C(C)(C)CCC2(C)C [Bexarotene] + Cc1nc(Nc2ncc(C(=O)Nc3c(C)cccc3Cl)s2)cc(N2CCN(CCO)CC2)n1 [Dasatinib] (partner 0.075 µM)
Outline: as §1

Bexarotene + Decitabine = compound: C=C(c1ccc(C(=O)O)cc1)c1cc2c(cc1C)C(C)(C)CCC2(C)C [Bexarotene] + Nc1ncn([C@H]2C[C@H](O)[C@@H](CO)O2)c(=O)n1 [Decitabine] (partner 2 µM)
Outline: as §1

| Cell Line | relative viability (Bexarotene + Luminespib; first compound 0.08 µM) | relative viability (Bexarotene + Luminespib; first compound 0.253 µM) | relative viability (Bexarotene + Luminespib; first compound 0.8 µM) | relative viability (Bexarotene + Luminespib; first compound 2.53 µM) | relative viability (Bexarotene + Luminespib; first compound 8 µM) | relative viability (Bexarotene + Foretinib; first compound 0.08 µM) | relative viability (Bexarotene + Foretinib; first compound 0.253 µM) | relative viability (Bexarotene + Foretinib; first compound 0.8 µM) | relative viability (Bexarotene + Foretinib; first compound 2.53 µM) | relative viability (Bexarotene + Foretinib; first compound 8 µM) | relative viability (Bexarotene + Dasatinib; first compound 0.08 µM) | relative viability (Bexarotene + Dasatinib; first compound 0.253 µM) | relative viability (Bexarotene + Dasatinib; first compound 0.8 µM) | relative viability (Bexarotene + Dasatinib; first compound 2.53 µM) | relative viability (Bexarotene + Dasatinib; first compound 8 µM) | relative viability (Bexarotene + Decitabine; first compound 0.08 µM) | relative viability (Bexarotene + Decitabine; first compound 0.253 µM) | relative viability (Bexarotene + Decitabine; first compound 0.8 µM) | relative viability (Bexarotene + Decitabine; first compound 2.53 µM) | relative viability (Bexarotene + Decitabine; first compound 8 µM) |
| --- | --- | --- | --- | --- | --- | --- | --- | --- | --- | --- | --- | --- | --- | --- | --- | --- | --- | --- | --- | --- |
| 201T | 1 | 1.04 | 1.01 | 0.985 | 0.881 | 1.17 | 1.25 | 1.17 | 1.06 | 0.976 | 0.584 | 0.569 | 0.54 | 0.602 | 0.565 | 0.828 | 0.858 | 0.746 | 0.781 | 0.692 |
| A549 |  |  |  |  |  | 1.01 | 0.875 | 0.856 | 0.864 | 0.718 |  |  |  |  |  | 0.256 | 0.291 | 0.318 | 0.242 | 0.237 |
| A-427 | 1.05 | 0.94 | 0.999 | 1.1 | 0.948 | 1.14 | 0.932 | 0.941 | 1.05 | 0.868 | 0.726 | 0.614 | 0.611 | 0.627 | 0.684 | 0.57 | 0.461 | 0.435 | 0.477 | 0.533 |
| ABC-1 | 0.591 | 0.654 | 0.597 | 0.576 | 0.677 | 0.991 | 1.19 | 1.13 | 0.855 | 1.08 | 0.521 | 0.715 | 0.635 | 0.445 | 0.659 | 1.21 | 0.927 | 1.12 |  | 1.09 |
| BEN | 0.336 | 0.247 | 0.409 | 0.078 | 0.252 | 0.802 | 0.387 | 0.567 | 0.318 | 0.674 | 0.295 | 0.3 | 0.326 | 0.271 | 0.278 | 0.706 | 0.666 | 0.723 | 0.647 | 0.692 |
| CAL-12T | 0.218 | 0.224 | 0.419 | 0.322 | 0.297 | 1.31 | 1.1 | 1.19 | 1.03 | 0.977 | 0.296 | 0.327 | 0.332 | 0.302 | 0.271 |  |  |  |  |  |
| COR-L23 | 0.795 | 0.786 | 0.565 | 0.629 | 0.618 | 0.999 | 1.06 | 0.908 | 0.952 | 1.05 | 0.498 | 0.557 | 0.503 | 0.606 | 0.203 | 0.47 | 0.455 | 0.438 | 0.452 | 0.416 |
| COR-L 105 | 0.851 | 0.764 | 0.812 | 0.698 | 0.866 | 1.07 | 1.05 | 1.07 | 1.12 | 0.833 | 0.456 | 0.363 | 0.354 | 0.333 | 0.495 | 0.731 | 0.704 | 0.664 | 0.616 | 0.578 |
| Calu-6 |  |  |  |  |  | 0.973 | 0.901 | 0.752 | 0.886 | 1.02 |  |  |  |  |  |  |  |  |  |  |
| ChaGo-K-1 | 0.54 | 0.604 | 0.6 | 0.686 | 0.693 | 1.07 | 0.963 | 0.976 | 0.936 | 0.919 | 0.568 | 0.604 | 0.638 | 0.661 | 0.593 | 0.57 | 0.512 | 0.509 | 0.489 | 0.497 |
| EBC-1 |  |  |  |  |  | 0.111 | 0.124 | 0.101 | 0.129 | 0.112 |  |  |  |  |  |  |  |  |  |  |
| EKVX | 0.918 | 0.837 | 0.922 | 0.787 | 0.851 | 0.666 | 0.915 | 0.925 | 0.822 | 0.711 | 0.515 | 0.512 | 0.567 | 0.523 | 0.463 | 0.299 | 0.338 | 0.309 | 0.172 | 0.332 |
| EMC-BAC-2 | 1.28 | 1.23 | 1.23 | 1.12 | 1.11 | 0.912 | 1.09 | 0.998 | 0.964 | 0.993 | 0.328 | 0.316 | 0.294 | 0.309 | 0.334 | 1.1 | 0.948 | 0.924 |  | 0.943 |
| EPLC-272H | 0.304 | 0.332 | 0.252 | 0.303 | 0.258 | 0.666 | 0.555 | 0.75 | 0.588 | 0.737 | 0.388 | 0.312 | 0.369 | 0.352 | 0.383 | 0.414 | 0.36 | 0.353 | 0.368 | 0.414 |
| H3255 | 0.869 | 0.935 | 1.01 | 0.785 | 0.954 | 1.01 | 0.821 | 0.906 | 0.779 | 0.748 | 0.406 | 0.311 | 0.385 | 0.338 | 0.334 | 0.923 | 0.695 | 0.587 | 0.507 | 0.562 |
| HARA | 0.722 | 0.769 | 0.658 | 0.767 | 0.709 | 0.759 | 0.472 | 0.85 | 0.941 | 0.701 | 0.324 | 0.268 | 0.332 | 0.407 | 0.567 | 0.618 | 0.637 | 0.535 | 0.633 | 0.514 |
